Tests used:
[1] = Compound stability in HEK293 cell lysate; type: in vitro ADME; conditions: HEK293 cell lysate (1 mg/ml), 37 °C, 150 μM 31, after 24 h
Protocol: (§1) H Stability and permeability of 31 […]
(§2) stability was performed as described 21. Briefly, 400 µl of human serum or cell lysate from HEK293 cells (1 mg/ml) were incubated at 37 °C with 150 μM of 31 with 5% (v/v) DMSO. Samples of 45 µl were taken out at different time points and quenched with 50 µl of aqueous urea (6 M) and 100 µl of ACN.
(§3) Following centrifugation, 2 µl of a 2% (m/v) K 2CO3 solution in H2O and 1.5 µl of a 0.2 M Fmoc-OSu in ACN were added to the samples, which were then shaken at 1000 rpm for two hours at room temperature. This enabled the quantification of the residual amount of the compound via UPLC-UV/VIS at 260 nm. Compound peak areas were integrated. The experiments were performed in triplicate.
(§4) After 24h, 7% of 31 remained […]
(§5) detectable in cell lysate, and 20 % of 31 were still present in human serum (Figure S 38). […]
(§6) shown as mean values relative to the peak intensity at 0 h. Error bars represent the SD of three replicates.
(§7) For cell permeability studies, 40 µM of 31 were incubated with HEK293 cells in DMEM medium supplemented with 10 % FCS at 37°C overnight. The cells were harvested, washed extensively with ice-cold PBS and lysed in RIPA buffer. The sample was diluted 1:1 (v/v) with a solution of ACN : H 2O (1:1 )) before analyzing via UPLC-MS. […]

HEK293 cells = test: Metabolic labeling with Alk-14, CuAAC with Cy3-azide, in-gel fluorescence (global fatty-acylation level); type: cell-based; conditions: Alk-14 25 μM, 31 20 μM, 24 h
[2] = Compound stability in human serum; type: in vitro ADME; conditions: 37 °C, 150 μM 31, after 24 h
Protocol: as §1, §2, §3, §4, §5, §6, §7

SIRT3 = molecular target: T1, SIRT3 (Homo sapiens, UniProt Q9NTG7); test: SIRT3 discontinuous demyristoylation inhibition assay; type: biochemical
T1 sequence (Q9NTG7 1-399): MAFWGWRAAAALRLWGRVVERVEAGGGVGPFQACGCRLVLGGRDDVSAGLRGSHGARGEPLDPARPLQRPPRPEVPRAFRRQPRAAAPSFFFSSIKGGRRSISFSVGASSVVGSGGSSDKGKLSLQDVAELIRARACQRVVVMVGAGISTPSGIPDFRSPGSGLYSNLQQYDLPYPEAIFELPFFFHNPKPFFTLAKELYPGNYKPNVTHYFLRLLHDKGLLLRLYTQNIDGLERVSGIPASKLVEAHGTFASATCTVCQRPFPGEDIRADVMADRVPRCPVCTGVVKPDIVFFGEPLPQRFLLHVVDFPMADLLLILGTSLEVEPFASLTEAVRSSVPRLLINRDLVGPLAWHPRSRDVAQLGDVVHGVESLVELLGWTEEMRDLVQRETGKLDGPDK
Protocol: Inhibition of the enzymatic activity of HDACs was performed continuously for HDAC8, HDAC11, and SIRT2 and discontinuously for SIRT2, 3, and 6 using adequate substrates as described previously. , Experimental details are given in the Supporting Information.
A. HDAC and SIRT deacylase activity assays […]
140 mM NaCl, 10 mM MgCl 2, 1 mM tris(2-carboxyethyl)phosphine (TCEP), and 0.2 mg/ml BSA, pH 7.4 adjusted with NaOH), HDAC11 buffer (20 mM HEPES, 70 µM TCEP and 2 mg/ml BSA, pH 7.4 adjusted with NaOH) or SIRT buffer (20 mM Tris, 150 mM NaCl, 5 mM MgCl2 and 2 mg/ml BSA pH 7.8 adjusted with HCl), respectively. The thiotrifluoracetylated substrate Abz-SRGGK(thio-TFA)FFRR-NH2 (50 µM) […]
Aun is N-(2-aminobenzoyl)-11-aminoundecanoyl, was used for HDAC11 and Ac-EALPKK(Myr)T-C(Fluorescein)-G-NH2 (40 nM) was used for SIRT2 1-3. […]
(substrate, DMSO, and Buffer) controls were included in every measurement and were set as 100% and 0%, respectively. The measured values were normalized accordingly. […]
Reactions were stopped after 20 min by adding a constant volume of reaction mixture to stop solution (5 % acetonitrile (ACN) (v/v) and 1 % trifluoroacetic acid (TFA) (v/v) in dd. H 2O). The samples were analysed using HPLC-UV/VIS at λ Abs = 220 nm, λ Ex = 320 nm und λ Em = 420 nm. […]
100 nM, SIRT3: 200 nM, SIRT6: 500 nM). […] The samples were analysed using HPLC-UV/VIS at λ Abs = 360 nm. […]

compound remaining [1]: 7% | compound remaining [2]: 20% | IC50 (SIRT3): > 100 µM | inhibition at 50 µM (SIRT3; 50 μM 31): 1.6%
Compound: CCCCCCCCCCCCSC[C@@H](N)C(=O)NCCCC[C@@H]1NC(=O)[C@H](CCC(N)=O)NC1=O [Compound 31]
In-gel fluorescence signal (protein fatty acylation) (HEK293 cells): moderately increased the fluorescence signal
